Laboratory results: the supplement of paper PMC10307832

Experiments:
Assay in all cases: relative viability (nuclei count vs DMSO), 5 days (fraction); higher = more cells survive
17-AAG + Navitoclax = compound: C=CCNC1=C2C[C@@H](C)C[C@H](OC)[C@H](O)[C@@H](C)/C=C(\C)[C@H](OC(N)=O)[C@@H](OC)/C=C\C=C(/C)C(=O)NC(=CC1=O)C2=O [17-AAG] + CC1(C)CCC(c2ccc(Cl)cc2)=C(CN2CCN(c3ccc(C(=O)NS(=O)(=O)c4ccc(N[C@H](CCN5CCOCC5)CSc5ccccc5)c(S(=O)(=O)C(F)(F)F)c4)cc3)CC2)C1 [Navitoclax] (partner 0.5 µM)
How it was run: (§1)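 Lung cancer cell lines in 1536-well plates got either a single drug or a fixed anchor-drug dose together with five library-drug doses (not always all listed) in √10 steps, by pin tool, on the day after seeding. Nuclei were counted after 5 days, and relative viability is the treated-to-vehicle ratio of nuclei counts. Values are medians of duplicate plates.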

17-AAG + Linsitinib = compound: C=CCNC1=C2C[C@@H](C)C[C@H](OC)[C@H](O)[C@@H](C)/C=C(\C)[C@H](OC(N)=O)[C@@H](OC)/C=C\C=C(/C)C(=O)NC(=CC1=O)C2=O [17-AAG] + C[C@]1(O)C[C@@H](c2nc(-c3ccc4ccc(-c5ccccc5)nc4c3)c3c(N)nccn32)C1 [Linsitinib] (partner 1 µM)
How it was run: as §1

17-AAG + Foretinib = compound: C=CCNC1=C2C[C@@H](C)C[C@H](OC)[C@H](O)[C@@H](C)/C=C(\C)[C@H](OC(N)=O)[C@@H](OC)/C=C\C=C(/C)C(=O)NC(=CC1=O)C2=O [17-AAG] + COc1cc2c(Oc3ccc(NC(=O)C4(C(=O)Nc5ccc(F)cc5)CC4)cc3F)ccnc2cc1OCCCN1CCOCC1 [Foretinib] (partner 0.25 µM)
How it was run: as §1

17-AAG + Luminespib = compound: C=CCNC1=C2C[C@@H](C)C[C@H](OC)[C@H](O)[C@@H](C)/C=C(\C)[C@H](OC(N)=O)[C@@H](OC)/C=C\C=C(/C)C(=O)NC(=CC1=O)C2=O [17-AAG] + CCNC(=O)c1noc(-c2cc(C(C)C)c(O)cc2O)c1-c1ccc(CN2CCOCC2)cc1 [Luminespib] (partner 0.01 µM)
How it was run: as §1

| Cell Line | relative viability (17-AAG + Navitoclax; first compound 0.00128 µM) | relative viability (17-AAG + Navitoclax; first compound 0.004048 µM) | relative viability (17-AAG + Navitoclax; first compound 0.0128 µM) | relative viability (17-AAG + Navitoclax; first compound 0.04048 µM) | relative viability (17-AAG + Navitoclax; first compound 0.128 µM) | relative viability (17-AAG + Linsitinib; first compound 0.00128 µM) | relative viability (17-AAG + Linsitinib; first compound 0.004048 µM) | relative viability (17-AAG + Linsitinib; first compound 0.0128 µM) | relative viability (17-AAG + Linsitinib; first compound 0.04048 µM) | relative viability (17-AAG + Linsitinib; first compound 0.128 µM) | relative viability (17-AAG + Foretinib; first compound 0.00128 µM) | relative viability (17-AAG + Foretinib; first compound 0.004048 µM) | relative viability (17-AAG + Foretinib; first compound 0.0128 µM) | relative viability (17-AAG + Foretinib; first compound 0.04048 µM) | relative viability (17-AAG + Foretinib; first compound 0.128 µM) | relative viability (17-AAG + Luminespib; first compound 0.00128 µM) | relative viability (17-AAG + Luminespib; first compound 0.004048 µM) | relative viability (17-AAG + Luminespib; first compound 0.0128 µM) | relative viability (17-AAG + Luminespib; first compound 0.04048 µM) | relative viability (17-AAG + Luminespib; first compound 0.128 µM) |
| --- | --- | --- | --- | --- | --- | --- | --- | --- | --- | --- | --- | --- | --- | --- | --- | --- | --- | --- | --- | --- |
| 201T | 1.21 | 1.21 | 1.17 | 1.16 | 0.973 | 1.06 | 1.05 | 1.01 | 0.985 | 0.863 | 1.11 | 1.06 | 0.503 | 0.194 | 0.175 | 1.06 | 1.03 | 0.96 | 0.913 | 0.431 |
| A549 | 1.13 | 0.542 | 0.0729 | 0.0453 | 0.044 | 0.646 | 0.487 | 0.371 | 0.105 | 0.0473 | 0.963 | 0.815 | 0.55 | 0.0245 | 0.0282 | – | – | – | – | – |
| A-427 | 0.95 | 0.946 | 0.891 | 0.991 | 0.986 | 1.12 | 1.1 | 1.1 | 1.1 | 1.15 | 1.11 | 0.983 | 1.05 | 1.2 | 0.847 | 0.994 | 0.902 | 0.66 | 0.379 | 0.183 |
| ABC-1 | – | – | – | – | – | 0.866 | 0.773 | 0.876 | 0.761 | 0.816 | 0.9 | 0.882 | 1.08 | 1.05 | 0.432 | 0.439 | 0.758 | 0.565 | 0.38 | 0.238 |
| BEN | 0.069 | 0.0609 | 0.0634 | 0.052 | 0.0666 | 0.971 | 0.947 | 0.911 | 0.89 | 0.276 | 0.626 | 0.767 | 0.649 | 0.517 | 0.411 | 0.33 | 0.408 | 0.206 | 0.241 | 0.194 |
| CAL-12T | 1.25 | 1.17 | 1.21 | 0.799 | 0.296 | 0.764 | 0.815 | 0.73 | 0.425 | 0.276 | 1.12 | 1.07 | 1.08 | 0.608 | 0.202 | 0.33 | 0.331 | 0.175 | 0.14 | 0.113 |
| COR-L23 | 1.07 | 1.06 | 0.991 | 0.544 | 0.0992 | 0.919 | 0.952 | 0.943 | 0.473 | 0.138 | 0.938 | 0.943 | 0.846 | 0.854 | 0.143 | 0.648 | 0.504 | 0.46 | 0.11 | 0.0893 |
| COR-L 105 | 0.936 | 0.756 | 0.721 | 0.604 | 0.486 | 0.834 | 0.895 | 1 | 0.644 | 0.666 | 0.965 | 1 | 0.805 | 0.715 | 0.31 | 0.858 | 0.708 | 0.671 | 0.432 | 0.224 |
| Calu-6 | 0.783 | 0.735 | 0.703 | 0.197 | 0.122 | 0.86 | 0.977 | 0.942 | 0.353 | 0.146 | 0.833 | 0.899 | 0.754 | 0.249 | 0.121 | – | – | – | – | – |
| ChaGo-K-1 | 0.949 | 1.11 | 0.897 | 0.441 | 0.273 | – | – | – | – | – | 0.916 | 0.829 | 0.851 | 0.861 | 0.313 | 0.577 | 0.627 | 0.442 | 0.199 | 0.181 |
| EKVX | 0.997 | 0.937 | 0.934 | 0.242 | 0.165 | 1.12 | 1.08 | 0.873 | 0.252 | 0.122 | 0.895 | 0.805 | 0.175 | 0.192 | 0.131 | 0.879 | 0.857 | 0.742 | 0.187 | 0.13 |
| EMC-BAC-2 | 1.23 | 1.07 | 1.18 | 1.11 | 0.443 | 0.875 | 0.772 | 0.837 | 0.803 | 0.265 | 1.04 | 1.05 | 1.09 | 0.353 | 0.316 | 1.14 | 1.06 | 0.565 | 0.268 | 0.248 |
| EPLC-272H | 1.11 | 1.21 | 1.02 | 1.06 | 0.225 | 1.37 | 1.12 | 1.21 | 0.928 | 0.324 | 0.704 | 0.412 | 0.772 | 0.216 | 0.125 | 0.191 | 0.231 | 0.201 | 0.173 | 0.0978 |
| H3255 | 0.489 | 0.66 | 0.547 | 0.0858 | 0.107 | 0.953 | 1.01 | 0.798 | 0.201 | 0.188 | 0.943 | 0.874 | 0.819 | 0.252 | 0.249 | 0.716 | 0.872 | 0.536 | 0.203 | 0.208 |
| HARA | 1.16 | 1.21 | 1.15 | 1.12 | 1.14 | 0.947 | 1.01 | 0.909 | 0.442 | 0.754 | 0.884 | 0.911 | 0.865 | 0.792 | 0.455 | 0.831 | 0.544 | 0.757 | 0.525 | 0.207 |
| HCC-15 | 0.767 | 0.57 | 0.434 | 0.469 | 0.144 | 0.879 | 0.894 | 0.613 | 0.387 | 0.213 | 0.907 | 0.718 | 0.29 | 0.137 | 0.12 | 0.301 | 0.23 | 0.131 | 0.128 | 0.102 |
